{
  "source": "paper doi:10.1101/2021.09.30.462449v1",
  "about": "(biorxiv, 2021)",
  "key": {"CAMK1 (CaMK1)": {"target": "CAMK1 (CaMK1) (Homo sapiens, UniProt Q14012)", "assay": "biochemical", "details": "read-out: % inhibition mean (Adapta)"}, "[1]": {"target": "PIK3CB/PIK3R2 (p110 beta/p85 beta) (Homo sapiens, UniProt P42338)", "sequence (P42338 whole entry)": "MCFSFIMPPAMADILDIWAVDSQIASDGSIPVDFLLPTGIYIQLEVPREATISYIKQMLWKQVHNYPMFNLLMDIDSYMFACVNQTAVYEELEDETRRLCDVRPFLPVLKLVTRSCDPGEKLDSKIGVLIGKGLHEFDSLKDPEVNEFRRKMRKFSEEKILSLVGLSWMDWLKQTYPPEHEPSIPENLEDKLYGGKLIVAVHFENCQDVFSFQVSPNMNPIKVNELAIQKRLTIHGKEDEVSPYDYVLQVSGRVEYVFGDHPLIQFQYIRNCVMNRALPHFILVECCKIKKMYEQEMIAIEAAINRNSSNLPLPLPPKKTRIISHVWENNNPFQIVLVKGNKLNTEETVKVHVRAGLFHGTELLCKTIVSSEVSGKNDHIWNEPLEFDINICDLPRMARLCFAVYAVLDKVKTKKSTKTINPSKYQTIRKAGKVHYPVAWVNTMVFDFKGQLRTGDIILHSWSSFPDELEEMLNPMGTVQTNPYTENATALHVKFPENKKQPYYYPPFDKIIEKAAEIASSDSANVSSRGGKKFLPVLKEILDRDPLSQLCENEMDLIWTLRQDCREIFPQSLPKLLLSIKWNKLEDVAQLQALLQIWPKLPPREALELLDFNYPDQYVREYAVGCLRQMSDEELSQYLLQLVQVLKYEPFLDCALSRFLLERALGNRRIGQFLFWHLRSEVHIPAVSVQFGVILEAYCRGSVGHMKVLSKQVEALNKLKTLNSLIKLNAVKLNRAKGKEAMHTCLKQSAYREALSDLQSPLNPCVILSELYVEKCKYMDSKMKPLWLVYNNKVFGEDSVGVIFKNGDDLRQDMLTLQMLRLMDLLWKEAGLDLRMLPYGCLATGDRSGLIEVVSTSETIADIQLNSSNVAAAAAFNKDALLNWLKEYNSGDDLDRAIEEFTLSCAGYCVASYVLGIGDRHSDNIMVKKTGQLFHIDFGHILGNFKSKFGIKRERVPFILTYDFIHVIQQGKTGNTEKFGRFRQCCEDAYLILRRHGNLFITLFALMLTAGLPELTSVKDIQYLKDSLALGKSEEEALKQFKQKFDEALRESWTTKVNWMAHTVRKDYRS", "sequence (O00459 whole entry partner)": "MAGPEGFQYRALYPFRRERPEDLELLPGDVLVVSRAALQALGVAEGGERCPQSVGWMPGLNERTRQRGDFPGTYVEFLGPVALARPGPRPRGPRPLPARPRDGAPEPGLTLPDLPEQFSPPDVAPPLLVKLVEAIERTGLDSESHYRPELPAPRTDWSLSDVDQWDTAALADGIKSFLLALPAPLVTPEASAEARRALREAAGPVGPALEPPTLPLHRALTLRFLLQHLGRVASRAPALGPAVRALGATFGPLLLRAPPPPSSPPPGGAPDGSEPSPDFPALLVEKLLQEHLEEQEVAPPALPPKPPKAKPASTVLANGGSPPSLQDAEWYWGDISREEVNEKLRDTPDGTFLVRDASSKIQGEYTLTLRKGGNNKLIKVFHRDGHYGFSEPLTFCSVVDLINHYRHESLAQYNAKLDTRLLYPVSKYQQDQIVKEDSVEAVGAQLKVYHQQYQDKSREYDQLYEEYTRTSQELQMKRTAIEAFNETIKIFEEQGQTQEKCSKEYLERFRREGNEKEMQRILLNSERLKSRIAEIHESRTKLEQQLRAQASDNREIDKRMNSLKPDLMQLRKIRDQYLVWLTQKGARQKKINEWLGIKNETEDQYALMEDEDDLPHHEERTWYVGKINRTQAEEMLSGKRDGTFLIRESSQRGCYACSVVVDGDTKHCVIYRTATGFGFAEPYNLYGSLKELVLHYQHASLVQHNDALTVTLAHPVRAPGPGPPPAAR", "assay": "biochemical", "details": "read-out: % inhibition mean (Adapta)"}, "[2]": {"target": "PIK3CA/PIK3R3 (p110 alpha/p55 gamma) (Homo sapiens, UniProt P42336)", "assay": "biochemical", "details": "read-out: % inhibition mean (Adapta)"}, "GSG2 (Haspin)": {"target": "GSG2 (Haspin) (Homo sapiens, UniProt Q8TF76)", "assay": "biochemical", "details": "read-out: % inhibition mean (Adapta)"}, "CDK7/cyclin H/MNAT1": {"target": "CDK7/cyclin H/MNAT1 (Homo sapiens, UniProt P50613)", "assay": "biochemical", "details": "read-out: % inhibition mean (Adapta)"}, "CDK6/cyclin D1": {"target": "CDK6/cyclin D1 (Homo sapiens, UniProt Q00534)", "sequence (Q00534 whole entry)": "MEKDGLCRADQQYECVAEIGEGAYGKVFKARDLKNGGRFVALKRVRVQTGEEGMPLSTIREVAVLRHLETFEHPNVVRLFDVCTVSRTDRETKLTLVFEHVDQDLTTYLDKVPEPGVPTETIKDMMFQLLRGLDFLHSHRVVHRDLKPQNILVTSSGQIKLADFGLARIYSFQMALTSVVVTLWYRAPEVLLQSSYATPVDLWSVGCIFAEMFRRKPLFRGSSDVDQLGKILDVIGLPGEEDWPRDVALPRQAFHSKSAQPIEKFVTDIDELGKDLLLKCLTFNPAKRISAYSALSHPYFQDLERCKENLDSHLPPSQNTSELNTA", "sequence (P24385 whole entry partner)": "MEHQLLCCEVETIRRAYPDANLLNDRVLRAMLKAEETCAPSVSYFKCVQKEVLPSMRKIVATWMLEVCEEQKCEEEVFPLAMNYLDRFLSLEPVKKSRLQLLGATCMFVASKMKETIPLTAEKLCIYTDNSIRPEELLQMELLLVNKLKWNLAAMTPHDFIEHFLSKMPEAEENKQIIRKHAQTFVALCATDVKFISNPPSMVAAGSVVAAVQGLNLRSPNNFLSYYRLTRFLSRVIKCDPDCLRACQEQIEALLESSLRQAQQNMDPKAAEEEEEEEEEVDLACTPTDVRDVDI", "assay": "biochemical", "details": "read-out: % inhibition mean (Adapta)"}, "CDK4/cyclin D1": {"target": "CDK4/cyclin D1 (Homo sapiens, UniProt P11802)", "assay": "biochemical", "details": "read-out: % inhibition mean (Adapta)"}, "DAPK1": {"target": "DAPK1 (Homo sapiens, UniProt P53355)", "assay": "biochemical", "details": "read-out: % inhibition mean (Adapta)"}, "PI4K2A (PI4K2 alpha)": {"target": "PI4K2A (PI4K2 alpha) (Homo sapiens, UniProt Q9BTU6)", "assay": "biochemical", "details": "read-out: % inhibition mean (Adapta)"}, "LRRK2 G2019S": {"target": "LRRK2 G2019S (Homo sapiens, UniProt Q5S007, G2019S)", "sequence (Q5S007 whole entry G2019S)": "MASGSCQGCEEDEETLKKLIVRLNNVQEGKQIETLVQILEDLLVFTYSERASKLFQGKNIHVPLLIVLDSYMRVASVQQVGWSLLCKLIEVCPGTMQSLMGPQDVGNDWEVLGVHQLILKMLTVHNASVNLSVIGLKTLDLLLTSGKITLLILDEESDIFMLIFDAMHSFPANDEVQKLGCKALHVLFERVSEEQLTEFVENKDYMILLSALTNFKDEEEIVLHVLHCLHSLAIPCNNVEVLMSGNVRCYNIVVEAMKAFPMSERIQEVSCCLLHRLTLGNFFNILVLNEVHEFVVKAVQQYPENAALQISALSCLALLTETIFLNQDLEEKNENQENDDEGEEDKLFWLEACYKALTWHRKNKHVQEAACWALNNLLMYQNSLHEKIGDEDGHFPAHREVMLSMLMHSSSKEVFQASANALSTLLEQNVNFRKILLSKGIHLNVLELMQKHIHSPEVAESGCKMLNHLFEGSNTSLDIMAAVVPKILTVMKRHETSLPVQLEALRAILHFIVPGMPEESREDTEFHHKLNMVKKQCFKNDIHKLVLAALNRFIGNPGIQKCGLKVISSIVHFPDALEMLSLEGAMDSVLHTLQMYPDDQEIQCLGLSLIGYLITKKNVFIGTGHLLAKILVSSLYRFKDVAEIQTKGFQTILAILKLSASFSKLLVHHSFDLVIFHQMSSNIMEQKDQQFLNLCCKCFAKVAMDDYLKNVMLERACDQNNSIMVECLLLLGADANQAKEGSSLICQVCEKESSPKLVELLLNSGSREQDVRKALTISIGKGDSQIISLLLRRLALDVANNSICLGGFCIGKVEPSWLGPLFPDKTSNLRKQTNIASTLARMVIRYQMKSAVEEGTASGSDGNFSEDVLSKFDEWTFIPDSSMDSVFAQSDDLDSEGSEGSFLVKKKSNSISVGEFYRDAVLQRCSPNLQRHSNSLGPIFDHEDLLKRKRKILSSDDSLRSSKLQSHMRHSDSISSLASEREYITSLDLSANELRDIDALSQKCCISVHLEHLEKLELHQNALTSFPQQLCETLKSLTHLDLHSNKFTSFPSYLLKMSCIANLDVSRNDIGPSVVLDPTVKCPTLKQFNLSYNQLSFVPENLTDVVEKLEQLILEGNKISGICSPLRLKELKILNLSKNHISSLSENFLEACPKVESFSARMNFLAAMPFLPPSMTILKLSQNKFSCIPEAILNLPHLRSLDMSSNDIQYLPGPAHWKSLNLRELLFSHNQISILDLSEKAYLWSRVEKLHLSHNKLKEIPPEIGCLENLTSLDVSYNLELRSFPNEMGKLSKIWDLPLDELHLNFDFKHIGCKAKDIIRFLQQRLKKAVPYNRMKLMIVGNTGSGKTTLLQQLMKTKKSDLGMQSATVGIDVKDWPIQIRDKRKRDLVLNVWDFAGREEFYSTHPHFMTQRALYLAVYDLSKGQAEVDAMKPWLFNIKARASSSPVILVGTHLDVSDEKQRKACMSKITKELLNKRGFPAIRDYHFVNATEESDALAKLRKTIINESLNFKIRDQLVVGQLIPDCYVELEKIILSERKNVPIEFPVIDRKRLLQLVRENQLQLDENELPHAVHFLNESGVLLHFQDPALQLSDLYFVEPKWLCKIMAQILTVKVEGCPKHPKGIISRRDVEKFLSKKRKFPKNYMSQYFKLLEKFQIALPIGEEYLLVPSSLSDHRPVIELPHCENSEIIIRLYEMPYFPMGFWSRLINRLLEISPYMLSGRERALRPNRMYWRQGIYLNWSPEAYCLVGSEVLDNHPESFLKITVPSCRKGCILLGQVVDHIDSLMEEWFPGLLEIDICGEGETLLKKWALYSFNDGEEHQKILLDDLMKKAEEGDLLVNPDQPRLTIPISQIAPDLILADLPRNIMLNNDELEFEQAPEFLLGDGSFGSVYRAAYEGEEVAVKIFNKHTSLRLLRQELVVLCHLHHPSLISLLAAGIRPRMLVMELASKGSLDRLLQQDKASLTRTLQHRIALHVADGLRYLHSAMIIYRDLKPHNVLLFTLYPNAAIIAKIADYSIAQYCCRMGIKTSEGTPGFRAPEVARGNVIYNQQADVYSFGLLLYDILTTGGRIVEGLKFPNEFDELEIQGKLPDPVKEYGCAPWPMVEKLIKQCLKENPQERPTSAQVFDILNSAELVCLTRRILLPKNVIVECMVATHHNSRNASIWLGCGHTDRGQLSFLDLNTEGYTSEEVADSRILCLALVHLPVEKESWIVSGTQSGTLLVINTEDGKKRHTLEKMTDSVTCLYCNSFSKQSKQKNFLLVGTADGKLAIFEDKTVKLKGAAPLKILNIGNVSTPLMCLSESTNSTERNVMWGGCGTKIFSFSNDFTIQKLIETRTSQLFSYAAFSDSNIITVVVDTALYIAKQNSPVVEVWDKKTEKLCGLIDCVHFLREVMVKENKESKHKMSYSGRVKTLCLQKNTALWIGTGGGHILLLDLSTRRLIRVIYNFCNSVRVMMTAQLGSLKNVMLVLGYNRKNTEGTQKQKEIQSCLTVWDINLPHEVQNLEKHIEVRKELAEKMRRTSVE", "assay": "biochemical", "details": "read-out: % inhibition mean (Adapta)"}, "SPHK2": {"target": "SPHK2 (Homo sapiens, UniProt Q9NRA0)", "assay": "biochemical", "details": "read-out: % inhibition mean (Adapta)"}, "PIK3CG (p110 gamma)": {"target": "PIK3CG (p110 gamma) (Homo sapiens, UniProt P48736)", "assay": "biochemical", "details": "read-out: % inhibition mean (Adapta)"}, "PI4KA (PI4K alpha)": {"target": "PI4KA (PI4K alpha) (Homo sapiens, UniProt P42356)", "assay": "biochemical", "details": "read-out: % inhibition mean (Adapta)"}, "LRRK2 I2020T": {"target": "LRRK2 I2020T (Homo sapiens, UniProt Q5S007, I2020T)", "sequence (Q5S007 whole entry I2020T)": "as the sequence (Q5S007 whole entry G2019S) above, with S2019G, I2020T counted along it", "assay": "biochemical", "details": "read-out: % inhibition mean (Adapta)"}, "LRRK2": {"target": "LRRK2 (Homo sapiens, UniProt Q5S007)", "sequence (Q5S007 whole entry)": "as the sequence (Q5S007 whole entry G2019S) above, with S2019G counted along it", "assay": "biochemical", "details": "read-out: % inhibition mean (Adapta)"}, "PIP5K1A": {"target": "PIP5K1A (Homo sapiens, UniProt Q99755)", "assay": "biochemical", "details": "read-out: % inhibition mean (Adapta)"}, "LRRK2 G2019S FL": {"target": "LRRK2 G2019S FL (Homo sapiens, UniProt Q5S007, G2019S)", "sequence (Q5S007 whole entry G2019S)": "as the sequence (Q5S007 whole entry G2019S) above", "assay": "biochemical", "details": "read-out: % inhibition mean (Adapta)"}, "CDK4/cyclin D3": {"target": "CDK4/cyclin D3 (Homo sapiens, UniProt P11802)", "assay": "biochemical", "details": "read-out: % inhibition mean (Adapta)"}, "PIK3C2A (PI3K-C2 alpha)": {"target": "PIK3C2A (PI3K-C2 alpha) (Homo sapiens, UniProt O00443)", "assay": "biochemical", "details": "read-out: % inhibition mean (Adapta)"}, "CDK9/cyclin T1": {"target": "CDK9/cyclin T1 (Homo sapiens, UniProt P50750)", "assay": "biochemical", "details": "read-out: % inhibition mean (Adapta)"}, "PIP4K2A": {"target": "PIP4K2A (Homo sapiens, UniProt P48426)", "assay": "biochemical", "details": "read-out: % inhibition mean (Adapta)"}, "PIP5K1B": {"target": "PIP5K1B (Homo sapiens, UniProt O14986)", "assay": "biochemical", "details": "read-out: % inhibition mean (Adapta)"}, "NUAK1 (ARK5)": {"target": "NUAK1 (ARK5) (Homo sapiens, UniProt O60285)", "assay": "biochemical", "details": "read-out: % inhibition mean (Adapta)"}, "PIP5K1C": {"target": "PIP5K1C (Homo sapiens, UniProt O60331)", "assay": "biochemical", "details": "read-out: % inhibition mean (Adapta)"}, "[3]": {"target": "PIK3CD/PIK3R1 (p110 delta/p85 alpha) (Homo sapiens, UniProt O00329)", "assay": "biochemical", "details": "read-out: % inhibition mean (Adapta)"}, "SPHK1": {"target": "SPHK1 (Homo sapiens, UniProt Q9NYA1)", "assay": "biochemical", "details": "read-out: % inhibition mean (Adapta)"}, "[4]": {"target": "PIK3CA/PIK3R1 (p110 alpha/p85 alpha) (Homo sapiens, UniProt P42336)", "assay": "biochemical", "details": "read-out: % inhibition mean (Adapta)"}, "PL^pro": {"target": "PL^pro (Severe acute respiratory syndrome coronavirus 2, UniProt P0DTD1)", "assay": "FRET peptide cleavage assay", "type": "biochemical"}},
  "data": [
    {"smiles": "COc1ccc2nc3cc(Cl)ccc3c(Nc3cc(CN4CCCC4)c(O)c(CN4CCCC4)c3)c2n1", "note": "[Pyronaridine, 4-[(7-Chloro-2-methoxybenzo[b][1,5]naphthyridin-10-yl)amino]-2,6-bis(1-pyrrolidinylmethyl)phenol phosphate (1:4)]", "values": [
      {"measurement": "inhibition at 1 µM", "setting": "CAMK1 (CaMK1)", "value": 35, "unit": "%"},
      {"measurement": "inhibition at 1 µM", "setting": "[1]", "value": -2, "unit": "%"},
      {"measurement": "inhibition at 1 µM", "setting": "[2]", "value": 1, "unit": "%"},
      {"measurement": "inhibition at 1 µM", "setting": "GSG2 (Haspin)", "value": 9, "unit": "%"},
      {"measurement": "inhibition at 1 µM", "setting": "CDK7/cyclin H/MNAT1", "value": -13, "unit": "%"},
      {"measurement": "inhibition at 1 µM", "setting": "CDK6/cyclin D1", "value": 1, "unit": "%"},
      {"measurement": "inhibition at 1 µM", "setting": "CDK4/cyclin D1", "value": 1, "unit": "%"},
      {"measurement": "inhibition at 1 µM", "setting": "DAPK1", "value": 11, "unit": "%"},
      {"measurement": "inhibition at 1 µM", "setting": "PI4K2A (PI4K2 alpha)", "value": 4, "unit": "%"},
      {"measurement": "inhibition at 1 µM", "setting": "LRRK2 G2019S", "value": 4, "unit": "%"},
      {"measurement": "inhibition at 1 µM", "setting": "SPHK2", "value": -5, "unit": "%"},
      {"measurement": "inhibition at 1 µM", "setting": "PIK3CG (p110 gamma)", "value": 2, "unit": "%"},
      {"measurement": "inhibition at 1 µM", "setting": "PI4KA (PI4K alpha)", "value": 0, "unit": "%"},
      {"measurement": "inhibition at 1 µM", "setting": "LRRK2 I2020T", "value": -15, "unit": "%"},
      {"measurement": "inhibition at 1 µM", "setting": "LRRK2", "value": -2, "unit": "%"},
      {"measurement": "inhibition at 1 µM", "setting": "PIP5K1A", "value": -6, "unit": "%"},
      {"measurement": "inhibition at 1 µM", "setting": "LRRK2 G2019S FL", "value": -10, "unit": "%"},
      {"measurement": "inhibition at 1 µM", "setting": "CDK4/cyclin D3", "value": -6, "unit": "%"},
      {"measurement": "inhibition at 1 µM", "setting": "PIK3C2A (PI3K-C2 alpha)", "value": -1, "unit": "%"},
      {"measurement": "inhibition at 1 µM", "setting": "CDK9/cyclin T1", "value": 5, "unit": "%"},
      {"measurement": "inhibition at 1 µM", "setting": "PIP4K2A", "value": 15, "unit": "%"},
      {"measurement": "inhibition at 1 µM", "setting": "PIP5K1B", "value": -11, "unit": "%"},
      {"measurement": "inhibition at 1 µM", "setting": "NUAK1 (ARK5)", "value": 11, "unit": "%"},
      {"measurement": "inhibition at 1 µM", "setting": "PIP5K1C", "value": -3, "unit": "%"},
      {"measurement": "inhibition at 1 µM", "setting": "[3]", "value": 9, "unit": "%"},
      {"measurement": "inhibition at 1 µM", "setting": "SPHK1", "value": 10, "unit": "%"},
      {"measurement": "inhibition at 1 µM", "setting": "[4]", "value": 7, "unit": "%"},
      {"measurement": "IC50", "setting": "PL^pro", "value": "1860 ± 580", "unit": "nM"}
    ]}
  ]
}
